Measurements as given in patent publication US20250082700A1, “METHODS AND COMPOSITIONS OF TREATING BIOLFILM-RELATED DISEASES” (UNIVERSITY OF ROCHESTER, priority 2022, published 2025).
Ends that are not written are not given here.

Key:
[1] = test system: S. mutans from 1 representative S-ECC child; assay: Inhibition of S. mutans clinical isolate by plantaricin (MIC); format: cell-based, Streptococcus mutans; conditions: clear culture plated, additional 48 hours
Description: (§1) Bacteriocins, antimicrobial molecules, produced by L. plantarum are known as plantaricins. Peptide plantaricin-149 (acetate) powers (Creative Peptides, Shirley, USA) were dissolved in ddH2O to prepare plantaricin solutions. S. mutans (3.6×10^3 CFU/ml) and C. albicans (3.1×10^1 CFU/ml) from 1 representative S-ECC child were selected and treated with the plantaricin with a range of concentration (0-400 μg/ml). The mixtures of plantaricin with S. mutans or C. albicans were grown for 24 hours in TSBYE with 1% glucose in 96-well plates. Clear culture after 24 hours' incubation indicated no growth of microorganisms. Therefore, the minimal inhibition concentration (MIC) of plantaricin-149 was defined as the lowest concentration that inhibited the growth of S. mutans and C. albicans.
(§2) S. mutans (3.6×10^3 CFU/ml) and C. albicans (3.1×10^1 CFU/ml) were treated by the plantaricin ranging from 0-400 ng/ml respectively, and grew for 24 h in 1% glucose condition. The MIC of plantaricin was 400 ng/ml for S. mutans and 200 ng/ml for C. albicans. The clear culture was plated and incubated for additional 48 hours.

[2] = test system: C. albicans from 1 representative S-ECC child; assay: Inhibition of C. albicans clinical isolate by plantaricin (MIC); format: cell-based, Candida albicans; conditions: clear culture plated, additional 48 hours
Description: as §1, §2

Which “nature of inhibitory effect on S. mutans” value [1] does the source give for YSLQMGATAIKQVKKLFKKKGG [plantaricin] here?
The value was “bacteriostatic”.

What about the “nature of inhibitory effect on C. albicans” value [2] of the same sequence?
Its value is “fungistatic”.
